One assay has as its target T1, His6-TEV-PPARγ-(234-505) (Homo sapiens, UniProt P37231).
T1 construct: The His6-TEV-PPARγ-(234-505) protein for assay was expressed and purified; TEV cleavage site (N); made in house
T1 sequence (P37231 234-505): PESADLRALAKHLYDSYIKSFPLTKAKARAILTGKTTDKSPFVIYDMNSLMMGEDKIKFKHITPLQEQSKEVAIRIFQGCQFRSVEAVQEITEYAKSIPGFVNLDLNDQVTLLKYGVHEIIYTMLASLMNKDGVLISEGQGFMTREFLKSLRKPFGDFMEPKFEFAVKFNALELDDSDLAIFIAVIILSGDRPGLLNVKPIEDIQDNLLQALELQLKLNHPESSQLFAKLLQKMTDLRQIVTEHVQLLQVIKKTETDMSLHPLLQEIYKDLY
As to the kind of experiment: TR-FRET Assay to Measure Co-R Peptide Recruitment to PPARγ. The class given is biochemical. As to conditions: Co-R peptide (SMRT-ID2) recruitment; top final concentration 20 μM; read-out: TR-FRET i-Ag; AC50. In a few lines:
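Corepressor recruitment is measured by adding terbium-labeled anti-His antibody and FITC SMRT-ID2 peptide, at 5 and 200 nM final, after a 20-minute room-temperature protein–compound incubation. After one further hour, signal is converted to percent response between DMSO and 500 nM T0070907 wells.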

A further assay deals with UM-UC-9 engineered cells. As to the kind of experiment: Cell proliferation / short-term viability assay, CellTiter-Glo 144 h. The class given is cell-based, human. As to conditions: read-out: CTGlo 144 h UMUC9.5, G150. In a few lines:
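Viability read by CellTiter-Glo 2.0 luminescence at day 7 versus DMSO-vehicle wells and a T0 plate measured on day 0. Cells: UM-UC-9 engineered assay-ready stocks, 500 cells/well in high-glucose DMEM with 10% FBS, 37° C, 5% CO2.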

Where two headings read alike, the source gives them in different places.

As for `COc1cc(-c2cc(C(=O)N3CCC(C(=O)NCc4cn(C)c5ccccc45)CC3)n[nH]2)c(Cl)cn1` [Example 187, 1-(5-(5-chloro-2-methoxypyridin-4-yl)-1H-pyrazole-3-carbonyl)-N-((1-methyl-1H-indol-3-yl)methyl)piperidine-4-carboxamide], the AC50 at His6-TEV-PPARγ-(234-505) is 41.7 nM. The IC50 in the assay with UM-UC-9 engineered cells (Homo sapiens, UM-UC-9, 144 h) is 114 nM.

On to `COc1cc(-c2cc(C(=O)N3CCC(C(=O)NCc4ccc5oc(=O)n(C)c5c4)CC3)n[nH]2)c(Cl)cn1` [Example 228, 1-(5-(5-chloro-2-methoxypyridin-4-yl)-1H-pyrazole-3-carbonyl)-N-((3-methyl-2-oxo-2,3-dihydrobenzo[d]oxazol-5-yl)methyl)piperidine-4-carboxamide], for which the AC50 on His6-TEV-PPARγ-(234-505) turned out to be 490 nM. The IC50 in the assay on UM-UC-9 engineered cells (Homo sapiens, UM-UC-9, 144 h) was greater than 10000 nM.

On to `COc1cc(-c2cc(C(=O)N3CC[C@@H](C(=O)NCc4cccc(Cl)c4)CC34CCC4)n[nH]2)c(Cl)cn1` (single isomer, unassigned) [Example 256-B], for which the AC50 on His6-TEV-PPARγ-(234-505) was determined as 15900 nM. In addition, the IC50 with UM-UC-9 engineered cells (Homo sapiens, UM-UC-9, 144 h) stood at 3520 nM.

In the case of `COc1cc(-c2cc(C(=O)N3CCC(C(=O)NC4COC(C)C4)CC3)n[nH]2)c(Cl)cn1` (mixture of isomers) [Example 247, 1-(5-(5-chloro-2-methoxypyridin-4-yl)-1H-pyrazole-3-carbonyl)-N-(5-methyltetrahydrofuran-3-yl)piperidine-4-carboxamide], on His6-TEV-PPARγ-(234-505), the AC50 came out at 565 nM. Moreover, the IC50 with UM-UC-9 engineered cells (Homo sapiens, UM-UC-9, 144 h) worked out at 2230 nM.

For the compound `CCc1cc(-c2cc(C(=O)N3CCC(C(=O)NCc4ncc(F)cc4Cl)CC34CC4)n[nH]2)c(F)cn1` (single isomer, unassigned) [Example 483-B], on His6-TEV-PPARγ-(234-505), the AC50 was 0.9 nM. In addition, the IC50 in the assay on UM-UC-9 engineered cells came out at 7.2 nM.

Consider `COc1cc(-c2cc(C(=O)N3CCC(C(=O)Nc4cnn5ccc(C(C)O)nc45)CC34CC4)n[nH]2)c(F)cn1` (mixture of isomers) [Example 445, (S)-4-(5-(5-fluoro-2-methoxypyridin-4-yl)-1H-pyrazole-3-carbonyl)-N-(5-((R)-1-hydroxyethyl)pyrazolo[1,5-a]pyrimidin-3-yl)-4-azaspiro[2.5]octane-7-carboxamide and (S)-4-(5-(5-fluoro-2-methoxypyridin-4-yl)-1H-pyrazole-3-carbonyl)-N-(5-((S)-1-hydroxyethyl)pyrazolo[1,5-a]pyrimidin-3-yl)-4-azaspiro[2.5]octane-7-carboxamide], for which, on His6-TEV-PPARγ-(234-505), the AC50 stood at 1.2 nM. Further, the IC50 in the assay on UM-UC-9 engineered cells came to 22.4 nM.

`COc1cc(-c2cc(C(=O)N3CCC(C(=O)NC4CCN(C5COC5)C4)CC34CC4)n[nH]2)c(F)cn1` (mixture of isomers) [Example 396, (S)-4-(5-(5-fluoro-2-methoxypyridin-4-yl)-1H-pyrazole-3-carbonyl)-N—((R)-1-(oxetan-3-yl)pyrrolidin-3-yl)-4-azaspiro[2.5]octane-7-carboxamide and (S)-4-(5-(5-fluoro-2-methoxypyridin-4-yl)-1H-pyrazole-3-carbonyl)-N—((S)-1-(oxetan-3-yl)pyrrolidin-3-yl)-4-azaspiro[2.5]octane-7-carboxamide]: the AC50 on His6-TEV-PPARγ-(234-505) is 97.7 nM. The IC50 in the assay with UM-UC-9 engineered cells worked out at 293 nM.

Take `COc1cc(-c2cc(C(=O)N3CCC(C(=O)NC4CCN(c5ccccc5)CC4)CC3)n[nH]2)c(Cl)cn1` [Example 196, 1-(5-(5-chloro-2-methoxypyridin-4-yl)-1H-pyrazole-3-carbonyl)-N-(1-phenylpiperidin-4-yl)piperidine-4-carboxamide]: at His6-TEV-PPARγ-(234-505), the AC50 was 610 nM. Moreover, in the assay with UM-UC-9 engineered cells (Homo sapiens, UM-UC-9, 144 h), the IC50 stood at 1030 nM.

As for `COc1cc(-c2cc(C(=O)N3CCC(C(=O)NC4CC(N5CCC(F)(F)C5)C4(C)C)CC34CC4)n[nH]2)c(F)cn1` (single isomer, unassigned) [Example 355-A], on His6-TEV-PPARγ-(234-505), the AC50 is 10.4 nM. In the assay with UM-UC-9 engineered cells, the IC50 came out at 3.5 nM.

Take `COc1cc(-c2cc(C(=O)N3CCC(NC(=O)C4CCC(O)(C(F)(F)F)CC4)CC34CC4)n[nH]2)c(F)cn1` (single isomer, unassigned) [Example 347-C]: the AC50 at His6-TEV-PPARγ-(234-505) worked out at 5080 nM. Moreover, the IC50 in the assay with UM-UC-9 engineered cells was greater than 10000 nM.

For the compound `COc1cc(-c2cc(C(=O)N3CCC(C(=O)NCc4cc(Cl)ccc4F)CC3)n[nH]2)c(Cl)cn1` [Example 154, N-(5-chloro-2-fluorobenzyl)-1-(5-(5-chloro-2-methoxypyridin-4-yl)-1H-pyrazole-3-carbonyl)piperidine-4-carboxamide], on His6-TEV-PPARγ-(234-505), the AC50 is 77.4 nM. In the assay with UM-UC-9 engineered cells (Homo sapiens, UM-UC-9, 144 h), the IC50 turned out to be 166 nM.

With `COc1cc(-c2cc(C(=O)N3CCC(C(=O)NCc4cccc(C(F)F)n4)CC3)n[nH]2)c(Cl)cn1` [Example 239, 1-(5-(5-chloro-2-methoxypyridin-4-yl)-1H-pyrazole-3-carbonyl)-N-((6-(difluoromethyl)pyridin-2-yl)methyl)piperidine-4-carboxamide], at His6-TEV-PPARγ-(234-505), the AC50 was 246 nM. The IC50 in the assay with UM-UC-9 engineered cells (Homo sapiens, UM-UC-9, 144 h) was determined as 1400 nM.

As to `COc1cc(-c2cc(C(=O)N3CC[C@H](C(=O)N[C@H]4CN(c5ccc(C)nc5)C[C@H]4F)CC34CC4)n[nH]2)c(F)cn1` [Example 428, (S)—N-((3S,4R)-4-fluoro-1-(6-methylpyridin-3-yl)pyrrolidin-3-yl)-4-(5-(5-fluoro-2-methoxypyridin-4-yl)-1H-pyrazole-3-carbonyl)-4-azaspiro[2.5]octane-7-carboxamide], the AC50 on His6-TEV-PPARγ-(234-505) is 54.7 nM. The IC50 with UM-UC-9 engineered cells (Homo sapiens, UM-UC-9, 144 h) was determined as 141 nM.

With `COc1cc(-c2cc(C(=O)N3CCC(C(=O)NCc4n[nH]c5ccccc45)CC3)n[nH]2)c(Cl)cn1` [Example 201, N-((1H-indazol-3-yl)methyl)-1-(5-(5-chloro-2-methoxypyridin-4-yl)-1H-pyrazole-3-carbonyl)piperidine-4-carboxamide], the AC50 at His6-TEV-PPARγ-(234-505) worked out at 77.5 nM. Moreover, the IC50 in the assay on UM-UC-9 engineered cells (Homo sapiens, UM-UC-9, 144 h) was found to be 171 nM.

On to `COc1cc(-c2cc(C(=O)N3CCC(C(=O)NCc4ccc5c(ccn5C)c4)CC3)n[nH]2)c(Cl)cn1` [Example 206, 1-(5-(5-chloro-2-methoxypyridin-4-yl)-1H-pyrazole-3-carbonyl)-N-((1-methyl-1H-indol-5-yl)methyl)piperidine-4-carboxamide], for which, on His6-TEV-PPARγ-(234-505), the AC50 turned out to be 13.8 nM. In addition, in the assay on UM-UC-9 engineered cells (Homo sapiens, UM-UC-9, 144 h), the IC50 amounted to 86.6 nM.

For `COc1cc(-c2cc(C(=O)N3CC[C@H](C(=O)NC4CCC(C)(C)N(C)C4)CC34CC4)n[nH]2)c(F)cn1` (single isomer, unassigned) [Example 424-A], the AC50 at His6-TEV-PPARγ-(234-505) came to 1030 nM. In addition, in the assay with UM-UC-9 engineered cells, the IC50 worked out at 2980 nM.

In the case of `COc1cc(-c2cc(C(=O)N3CC[C@H](C(=O)NC4CCN(CCF)C(C)(C)C4)CC34CC4)n[nH]2)c(F)cn1` (single isomer, unassigned) [Example 425-B], on His6-TEV-PPARγ-(234-505), the AC50 amounted to 917 nM. In addition, the IC50 in the assay with UM-UC-9 engineered cells was greater than 10000 nM.

For `COc1cc(-c2cc(C(=O)N3CC[C@H](C(=O)NCC4CCS(=N)(=O)C4(C)C)CC34CC4)n[nH]2)c(F)cn1` (mixture of isomers) [Example 372-A], the AC50 at His6-TEV-PPARγ-(234-505) was found to be 696 nM. Also, the IC50 with UM-UC-9 engineered cells (Homo sapiens, UM-UC-9, 144 h) is greater than 10000 nM.

Turning to “(2S,4R)-1-(5-(5-fluoro-2-methoxypyridin-4-yl)-1H-pyrazole-3-carbonyl)-N-((1r,4R)-4-hydroxy-4-(trifluoromethyl)cyclohexyl)-2-(trifluoromethyl)piperidine-4-carboxamide and (2S,4S)-1-(5-(5-fluoro-2-methoxypyridin-4-yl)-1H-pyrazole-3-carbonyl)-N-((1r,4S)-4-hydroxy-4-(trifluoromethyl)cyclohexyl)-2-(trifluoromethyl)piperidine-4-carboxamide [Example 367]”, on His6-TEV-PPARγ-(234-505), the AC50 was found to be 22 nM. Also, the IC50 in the assay on UM-UC-9 engineered cells is 12 nM.

On to `COc1cc(-c2cc(C(=O)N3CCC(C(=O)NC4CC(C)(F)C4)CC3)n[nH]2)c(Cl)cn1` (mixture of isomers) [Example 246, 1-(5-(5-chloro-2-methoxypyridin-4-yl)-1H-pyrazole-3-carbonyl)-N-(3-fluoro-3-methylcyclobutyl)piperidine-4-carboxamide], for which, on His6-TEV-PPARγ-(234-505), the AC50 came to 383 nM. In addition, the IC50 with UM-UC-9 engineered cells (Homo sapiens, UM-UC-9, 144 h) stood at 1230 nM.

Turning to `COc1cc(-c2cc(C(=O)N3CCC(C(=O)NC4CCN(c5ccccc5)C4)CC3)n[nH]2)c(Cl)cn1` (stereo not shown) [Example 117, 1-[5-(5-chloro-2-methoxypyridin-4-yl)-1H-pyrazole-3-carbonyl]-N-(1-phenylpyrrolidin-3-yl)piperidine-4-carboxamide], the AC50 on His6-TEV-PPARγ-(234-505) is 56.2 nM. In addition, the IC50 in the assay on UM-UC-9 engineered cells (Homo sapiens, UM-UC-9, 144 h) came to 293 nM.

Regarding `COc1cc(-c2cc(C(=O)N3CCC(C(=O)NCc4ncc5c(n4)CCC5)CC3)n[nH]2)c(Cl)cn1` [Example 241, 1-(5-(5-chloro-2-methoxypyridin-4-yl)-1H-pyrazole-3-carbonyl)-N-((6,7-dihydro-5H-cyclopenta[d]pyrimidin-2-yl)methyl)piperidine-4-carboxamide], on His6-TEV-PPARγ-(234-505), the AC50 came to 880 nM. The IC50 in the assay with UM-UC-9 engineered cells (Homo sapiens, UM-UC-9, 144 h) was determined as 3480 nM.

For the compound `COc1cc(-c2cc(C(=O)N3CC[C@H](C(=O)NCc4ccc5c(c4)B(O)OC5(C)C)CC34CC4)[nH]n2)c(F)cn1` [Example 522, (S)-4-(3-(5-fluoro-2-methoxypyridin-4-yl)-1H-pyrazole-5-carbonyl)-N-((1-hydroxy-3,3-dimethyl-1,3-dihydrobenzo[c][1,2]oxaborol-6-yl)methyl)-4-azaspiro[2.5]octane-7-carboxamide], the AC50 on His6-TEV-PPARγ-(234-505) was 1.4 nM. In addition, the IC50 with UM-UC-9 engineered cells (Homo sapiens, UM-UC-9, 144 h) is 14.3 nM.
